Assays:
[1] = test system: human fetal cardiomyocytes; assay: Cytokinesis failure in cultured human fetal cardiomyocytes (β-adrenergic receptor signaling pathway studies); assay type: cell-based
Protocol: Primary cardiomyocyte culture experiments: Neonatal (mouse or rat) cardiomyocytes or human fetal cardiomyocytes were plated in 4-well chamber slides pre-coated with fibronectin (10 μg/ml) at a density of 200,000 cells/well and cultured with DMEM/high glucose (for mouse and rat cardiomyocytes) or IMDM (for fetal human cardiomyocytes) containing 10% fetal bovine serum (FBS) and recombinant neuregulin 1 (rNRG1, 100 nanograms per milliliter (ng/ml)) overnight. All treatments and BrdU (30 micromolar (μM)) were added on the next day.
β-adrenergic receptor signaling pathway studies: Forskolin (10 μM), propranolol (10 μM), dobutamine (10 μM), or a combination of propranolol (10 μM) and dobutamine (10 μM) were added to the culture from day 1 to day 3. The cells were collected for examining gene expression or immunofluorescence microscopy at day 3.
Cardiomyocytes cultured on glass surfaces. […] The BrdU-positive nuclei, cell-cell boundaries (Pan-Cadherin antibody), and cardiomyocyte markers (α-actinin or troponin I antibody) were labeled by immunofluorescence. The stained cells were imaged under Nikon confocal microscope. The binucleated cardiomyocytes and all BrdU-positive cardiomyocytes were quantified using Fiji software.

[2] = test system: cardiomyocytes from infants with ToF/PS; assay: ToF/PS myocardium tissue (organotypic) culture: binucleated BrdU-labeled cardiomyocytes; assay type: cell-based, human; details: propranolol 10 μM + dobutamine 10 μM, ToF/PS organotypic cultures, FIG. 14E
Protocol: ToF/PS myocardium tissue culture: Discarded myocardium samples were collected during ToF/PS surgery, cut into ˜1 mm^3 tissue blocks, and cultured in IMDM media containing 10% FBS, recombinant neuregulin 1 (rNRG1, 100 ng/ml), and BrdU (30 μM) for 6 days. Samples were treated with forskolin (10 μM), propranolol (10 μM), dobutamine (10 μM), or a combination of propranolol (10 μM) and dobutamine (10 μM).
Cultured ToF/PS myocardium. Cardiomyocytes were isolated from cultured myocardium with the fixation-digestion method. After denaturing the DNA with 2N HCl and neutralization with 2 Normal (N) sodium hydroxide (NaOH), immunofluorescence antibody labeling was performed in solution. The proportion of binucleated and BrdU-positive was quantified with a Nikon A1R microscope.

- Ect2-positive midbodies ([1]; human fetal cardiomyocytes in cytokinesis, immunofluorescence microscopy, FIG. 14D): increased
- block of the dobutamine-stimulated increase in cardiomyocyte cytokinesis failure ([1]; propranolol 10 μM + dobutamine 10 μM, human fetal cardiomyocytes, FIG. 14C): completely
Structure (SMILES): CC(C)NCC(O)COc1cccc2ccccc12 (stereo not drawn) [propranolol, 1-naphthalen-1-yloxy-3-(propan-2-ylamino)propan-2-ol]
- inhibition of the dobutamine-stimulated increase in binucleated cardiomyocytes [2]: completely

From patent US20220280607A1, “Treatment of Heart Defects and Conditions in Pediatric Patients” (University of Pittsburgh - Of the Commonwealth System of …, priority 2019, published 2022)
